According to patent US10227331B2 (priority 2015, dated 2019):
pIC50: −log10 of the molar value.

How the values were obtained:
[1] = target: IMP-1 (Serratia marcescens, UniProt P52699); assay: biochemical; format: biochemical; settings: CCF2-FA substrate, 2 hours at 25° C; read-out: IMP-1 IC50
Summary of the method: (§1)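 Fluorescence assay, CCF2-FA substrate (cephalosporin core linking 7-hydroxycoumarin to fluorescein); inhibitor + MBL + substrate, 2 h, 25° C. IC50 by 4-parameter fit, semi-log plot.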

[2] = target: NDM-1 (Klebsiella pneumoniae, UniProt C7C422); assay: biochemical; format: biochemical; settings: CCF2-FA substrate, 2 hours at 25° C; read-out: NDM-1 IC50
Summary of the method: as §1

[3] = target: VIM-1 (Pseudomonas aeruginosa (strain ATCC 15692 / DSM 22644 / CIP 104116 / JCM 14847 / LMG 12228 / 1C / PRS 101 / PAO1), UniProt A0A0F7KYQ8); assay: biochemical; settings: CCF2-FA substrate, 2 hours at 25° C
Summary of the method: as §1

[4] = system: Escherichia coli expressing NDM-1 (CLB30005, CLB30016); format: cell-based; settings: with imipenem 1 μg/ml, 95% inhibition of bacterial growth; for Escherichia coli MITC95: NDM-1 (CLB30016)
Summary of the method: (§2)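 Colonies from overnight 35 °C blood-agar cultures were suspended in saline, diluted 1:100 into 1.1× CAMHB and exposed to test compound with or without imipenem at 1 μg/ml. After 22–24 h at 35 °C, absorbance was read to find the concentration restoring imipenem susceptibility.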

[5] = system: Klebsiella pneumoniae expressing VIM-1 (IHMA599644); format: cell-based; settings: with imipenem 1 μg/ml, 95% inhibition of bacterial growth; for Klebsiella pneumoniae MITC95: VIM-1 (IHMA599644)
Summary of the method: as §2

[6] = system: Serratia marcescens expressing IMP-1 (CL5741); format: cell-based; settings: with imipenem 1 μg/ml, 95% inhibition of bacterial growth; for Serratia marcescens MITC95: IMP-1 (CL5741)
Summary of the method: as §2

[7] = system: P. aeruginosa expressing IMP-1, efflux+ (MB9798); format: cell-based, Pseudomonas aeruginosa; settings: for P. aeruginosa expressing IMP-1, efflux+ (MB9798) MITC95: imipenem at 2 μg/mL, in the presence of a class A, C, D serine β-lactamase inhibitor closely related to relebactam; for Efflux ratio: ratio MITC95 PA_9798/MITC95 PA_9799
Excerpt: (§3) The strain background is Pseudomonas aeruginosa PAO1.

[8] = system: P. aeruginosa expressing IMP-1, efflux− (MB9799); assay: Efflux: concentration of MBL inhibitor which restores susceptibility to imipenem; format: cell-based, Pseudomonas aeruginosa; settings: imipenem at 2 μg/mL, in the presence of a class A, C, D serine β-lactamase inhibitor closely related to relebactam
Excerpt: as §3

NDM-1, sequence (C7C422 whole entry, looked up, species assumed): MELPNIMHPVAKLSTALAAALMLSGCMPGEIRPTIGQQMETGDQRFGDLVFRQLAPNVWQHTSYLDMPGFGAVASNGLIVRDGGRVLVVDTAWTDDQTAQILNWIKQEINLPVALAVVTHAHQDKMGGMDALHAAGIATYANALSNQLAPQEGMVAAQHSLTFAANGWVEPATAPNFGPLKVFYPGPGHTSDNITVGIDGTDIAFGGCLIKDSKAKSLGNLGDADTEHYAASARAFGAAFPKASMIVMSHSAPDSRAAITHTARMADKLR
IMP-1, sequence (P52699 whole entry, looked up, species assumed): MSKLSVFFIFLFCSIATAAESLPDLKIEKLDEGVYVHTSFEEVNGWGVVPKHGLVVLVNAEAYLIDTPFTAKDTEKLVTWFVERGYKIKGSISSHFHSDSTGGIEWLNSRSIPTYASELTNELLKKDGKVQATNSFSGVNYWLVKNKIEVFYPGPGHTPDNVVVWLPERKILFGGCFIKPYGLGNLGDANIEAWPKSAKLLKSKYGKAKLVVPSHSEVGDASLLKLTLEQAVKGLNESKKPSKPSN

## NCCS(=O)(=O)c1ccc(-c2cccc3ncccc23)c(-c2nn[nH]n2)c1S(N)(=O)=O [Example 324, 6-((2-aminoethyl)sulfonyl)-3-(quinolin-5-yl)-2-(2H-tetrazol-5-yl) benzenesulfonamide]
[1]
  pIC50: 9.26
[2]
  pIC50: 9.65
[3]
  pIC50: 9.86
[4]
  Escherichia coli MITC95: 1.563 µM
[5]
  Klebsiella pneumoniae MITC95: 3.125 µM
[6]
  Serratia marcescens MITC95: 1.563 µM
[7]
  P. aeruginosa expressing IMP-1, efflux+ (MB9798) MITC95: 6.25 µM
  Efflux ratio: 8.00
[8]
  P. aeruginosa expressing IMP-1, efflux− (MB9799) MITC95: 0.7813 µM

## NC[C@H](CO)S(=O)(=O)c1ccc(-c2cccc3nc(N)[nH]c23)c(-c2nn[nH]n2)c1S(N)(=O)=O [Example 351, (R)-3-(2-amino-1H-benzo[d]imidazol-7-yl)-6-((1-amino-3-hydroxypropan-2-yl)sulfonyl)-2-(1H-tetrazol-5-yl)benzenesulfonamide]
[1]
  pIC50: 8.87
[2]
  pIC50: 9.70
[3]
  pIC50: 9.15
[4]
  Escherichia coli MITC95: 0.7813 µM
[5]
  Klebsiella pneumoniae MITC95: 1.563 µM
[6]
  Serratia marcescens MITC95: 0.7813 µM
[7]
  P. aeruginosa expressing IMP-1, efflux+ (MB9798) MITC95: 0.7813 µM
  Efflux ratio: 1.00
[8]
  P. aeruginosa expressing IMP-1, efflux− (MB9799) MITC95: 0.7813 µM

## Nc1nc2c(-c3ccc(S(=O)(=O)[C@H]4C[C@@H](N)C4)c(S(N)(=O)=O)c3-c3nn[nH]n3)cccc2s1 [Example 180, 3-(2-aminobenzo[d]thiazol-4-yl)-6-((1s,3s)-3-aminocyclobutylsulfonyl)-2-(2H-tetrazol-5-yl)benzenesulfonamide]
[1]
  pIC50: 9.58
[2]
  pIC50: 10.08
[3]
  pIC50: 9.71
[4]
  Escherichia coli expressing NDM-1 (CLB30016) MITC95: 3.125 µM
[5]
  Klebsiella pneumoniae expressing VIM-1 (IHMA599644) MITC95: 3.125 µM
[6]
  Serratia marcescens expressing IMP-1 (CL5741) MITC95: 1.563 µM
[7]
  P. aeruginosa expressing IMP-1, efflux+ (MB9798) MITC95: 0.7813 µM
  Efflux ratio: 1.00
[8]
  P. aeruginosa expressing IMP-1, efflux− (MB9799) MITC95: 0.7813 µM

## NS(=O)(=O)c1c(S(=O)(=O)C2CNC2)ccc(-c2ccc3ncnn3c2)c1-c1nnn[nH]1.O=C(O)C(F)(F)F [Example 104, 3-((4-([1,2,4]triazolo[1,5-a]pyridin-6-yl)-2-sulfamoyl-3-(1H-tetrazol-5-yl)phenyl)sulfonyl)azetidin-1-ium 2,2,2-trifluoroacetate]
[1]
  pIC50: 8.45
[2]
  pIC50: 8.68
[3]
  pIC50: 9.16
[4]
  Escherichia coli expressing NDM-1 (CLB30016) MITC95: 3.125 µM
[5]
  Klebsiella pneumoniae expressing VIM-1 (IHMA599644) MITC95: 3.125 µM
[6]
  Serratia marcescens expressing IMP-1 (CL5741) MITC95: 6.25 µM
[7]
  P. aeruginosa expressing IMP-1, efflux+ (MB9798) MITC95: 12.5 µM
  Efflux ratio: 8.00
[8]
  P. aeruginosa expressing IMP-1, efflux− (MB9799) MITC95: 1.563 µM

## NCCS(=O)(=O)c1ccc(-c2ccc3cccnc3c2)c(-c2nnn[nH]2)c1S(N)(=O)=O.O=C(O)C(F)(F)F [Example 159, 2-((4-(quinolin-7-yl)-2-sulfamoyl-3-(1H-tetrazol-5-yl)phenyl)sulfonyl)ethanaminium 2,2,2-trifluoroacetate]
[1]
  pIC50: 9.31
[2]
  pIC50: 8.96
[3]
  pIC50: 9.58
[4]
  Escherichia coli expressing NDM-1 (CLB30016) MITC95: 1.563 µM
[5]
  Klebsiella pneumoniae expressing VIM-1 (IHMA599644) MITC95: 3.125 µM
[6]
  Serratia marcescens expressing IMP-1 (CL5741) MITC95: 3.125 µM
[7]
  P. aeruginosa expressing IMP-1, efflux+ (MB9798) MITC95: 12.5 µM
  Efflux ratio: 8.00
[8]
  P. aeruginosa expressing IMP-1, efflux− (MB9799) MITC95: 1.563 µM

## Nc1nc2c(-c3ccc(S(=O)(=O)C4CNC4)c(S(N)(=O)=O)c3-c3nn[nH]n3)ccc(F)c2[nH]1 [Example 251, 3-(2-Amino-7-fluoro-1H-benzo[d]imidazol-4-yl)-6-(azetidin-3-ylsulfonyl)-2-(2H-tetrazol-5-yl)benzenesulfonamide]
[1]
  pIC50: 9.13
[2]
  pIC50: 10.14
[3]
  pIC50: 9.60
[4]
  Escherichia coli MITC95: 0.3906 µM
[5]
  Klebsiella pneumoniae MITC95: 1.563 µM
[6]
  Serratia marcescens MITC95: 1.563 µM
[7]
  P. aeruginosa expressing IMP-1, efflux+ (MB9798) MITC95: 1.563 µM
  Efflux ratio: 2.00
[8]
  P. aeruginosa expressing IMP-1, efflux− (MB9799) MITC95: 0.7813 µM

## Cc1ccc(-c2ccc(S(C)(=O)=O)c(S(N)(=O)=O)c2-c2nn[nH]n2)c2nc(N)sc12 [Example 193, 3-(2-amino-7-methylbenzo[d]thiazol-4-yl)-6-(methylsulfonyl)-2-(2H-tetrazol-5-yl)benzenesulfonamide]
[1]
  pIC50: 10.03
[2]
  pIC50: 9.86
[3]
  pIC50: 9.97
[4]
  Escherichia coli expressing NDM-1 (CLB30016) MITC95: 3.125 µM
[5]
  Klebsiella pneumoniae expressing VIM-1 (IHMA599644) MITC95: 6.25 µM
[6]
  Serratia marcescens expressing IMP-1 (CL5741) MITC95: 1.563 µM
[7]
  P. aeruginosa expressing IMP-1, efflux+ (MB9798) MITC95: 6.25 µM
  Efflux ratio: 4.00
[8]
  P. aeruginosa expressing IMP-1, efflux− (MB9799) MITC95: 1.563 µM

## NCCS(=O)(=O)c1ccc(-c2cccc3cn[nH]c23)c(-c2nnn[nH]2)c1S(N)(=O)=O.O=C(O)C(F)(F)F [Example 173, 2-((4-(1H-indazol-7-yl)-2-sulfamoyl-3-(1H-tetrazol-5-yl)phenyl)sulfonyl)ethanaminium 2,2,2-trifluoroacetate]
[1]
  pIC50: 9.80
[2]
  pIC50: 9.47
[3]
  pIC50: 9.58
[4]
  Escherichia coli expressing NDM-1 (CLB30016) MITC95: 0.25 µM
[5]
  Klebsiella pneumoniae expressing VIM-1 (IHMA599644) MITC95: 0.8906 µM
[6]
  Serratia marcescens expressing IMP-1 (CL5741) MITC95: 0.8906 µM
[7]
  P. aeruginosa expressing IMP-1, efflux+ (MB9798) MITC95: 0.8906 µM
  Efflux ratio: 2.00
[8]
  P. aeruginosa expressing IMP-1, efflux− (MB9799) MITC95: 0.4453 µM

## C[C@@H](N)CS(=O)(=O)c1ccc(-c2cccc3c2nc(N)n3C)c(-c2nn[nH]n2)c1S(N)(=O)=O [Example 275, 3-(2-amino-1-methyl-1H-benzo[d]imidazol-4-yl)-6-((R)-2-aminopropylsulfonyl)-2-(2H-tetrazol-5-yl)benzenesulfonamide]
[1]
  pIC50: 9.08
[2]
  pIC50: 9.24
[3]
  pIC50: 9.16
[4]
  Escherichia coli MITC95: 0.5 µM
[5]
  Klebsiella pneumoniae MITC95: 1.781 µM
[6]
  Serratia marcescens MITC95: 0.8906 µM
[7]
  P. aeruginosa expressing IMP-1, efflux+ (MB9798) MITC95: 2.563 µM
  Efflux ratio: 2.88
[8]
  P. aeruginosa expressing IMP-1, efflux− (MB9799) MITC95: 0.8906 µM
